Data reported in US20120309699A1, “COMPOUNDS HAVING ANTI-INFLAMMATORY ACTIVITY” (Consejo Superior de Investigaciones Cientificas (CSIC), priority 2009, published 2012).

What was measured:
haptoglobin = assay: Systemic inflammation marker haptoglobin (DSS model); type: in vivo, mice; conditions: vs DSS group; HED 10 mg
Experimental: (§1) A model for intestinal inflammation based on the administration of DSS (sodium dextran sulfate) to C57BL/6 mice was used. At the present time there is no consensus about which overall is the best model for experimental colitis. The DSS model has been widely used because it has clinical, morphological and analytical characteristics which up to a point are similar to those specific to patients with ulcerative colitis or Crohn's disease.
The in vivo inflammation test was carried out using duplicates separated by a number of months. In each test each group of animals (n=8) was fed a standard diet supplemented with 2.3 mg/day/kg (animal weight) of each of the compounds, depending upon the group. This dose assumes the ingestion of 0.05 mg/day (50 μg/day) per mouse (having a mean weight of 22 grams). This dose extrapolated to a human being is equivalent to 10 mg in an adult weighing 70 kg; using the formula HED (human equivalent dose)=animal dose in mg/kg×(animal weight kg/human weight in kg)^0.33.
In each test the mice were fed for 3 weeks during which 1% DSS was included in their drink. The DSS was maintained for 8 days (and the same food as from the start). Then the DSS was withdrawn and the animals were allowed to recover for another 6 days (again with the same food).
• Monitoring of weight, food and drink ingestion. The mice in all groups were individually monitored, with weight, quantity of food ingested and water drunk each day being monitored throughout the experimental test. • Blood and water in feces. The water content of feces, as an indication of diarrhea, was evaluated using the difference in weight following evaporation in a stove. Blood was measured using reactive strips based on the guaiacol-peroxidase reaction (HealthCare Diagnosis Inc.). […] The reaction was measured using a scale from 0 (negative result) to 4 (most intense color change). • Length of colon. After sacrifice the colon was obtained from each mouse, extended and measured. […] This was evaluated by spectrophotometry at 460 nm using O-dianisidine reagent and hydrogen peroxide. The change in absorbance at 460 nm was monitored over 10 minutes in a V-630 spectrophotometer (Jasco, Tokyo, Japan). MPO activity was expressed as mU of activity/mg of fresh tissue, comparing the increase in absorbance with a standard straight line obtained using leukocyte myeloperoxidase (Sigma). • Prostaglandins in colonic mucosa. Levels of PGE2 were measured in colonic mucosa homogenates using an immunoenzyme method using a Cayman Chem. kit (USA). • “Antibody array”. […] The signal was detected by chemoluminescence. […] Signal intensities (densitometry) were analyzed using ScanAlyze software. […] The changes in cytokine levels were expressed as mean±SD in arbitrary density units. […]

Salmonella = assay: Adhesion of Salmonella to Caco-2 cells; type: cell-based, human; conditions: Caco-2, 25 μM/well; in comparison with resveratrol and the other derivatives
Experimental: We used two cell models for colon cancer to evaluate the anti-adhesion capacity of compounds derived from resveratrol against pathogenic bacteria in food: Caco-2 (a model frequently used to measure the adhesion of microorganisms) and HT-29 (a model frequently used to measure immune response to infections by enteropathogens). Caco-2 and HT-29 cells were grown in EMEM and DMEM respectively, for which 24 well plates were used at 37° C., 5% CO2, 95% air until a single layer of confluent epithelium formed (cell concentration per well 2×10^5 and 6×10^5 respectively). Pathogenic bacteria (E. coli O157, Salmonella and Listeria monocytogenes Scott A) were placed in contact with the various compounds derived from resveratrol for 1 hour and subsequently the bacteria together with the different compounds in a concentration of 25 μM/well were inoculated on the cell cultures, incubating the plates for 2 hours at 37° C., 5% CO2, 95% air. The plates were then washed 3 times with 1 ml of sterile PBS and 1 ml of distilled water with 20% of glycerol was added, and they were frozen at −70° C. to lyse the epithelial cells. […] Concentrations of the various derivatives tested were detected in the digestive tracts of experimental animals and therefore the test lay within the range of physiologically achievable concentrations.

Myeloperoxidase (MPO) = assay: Myeloperoxidase activity in colonic mucosa (DSS model); type: in vivo, mice; conditions: after DSS; HED 10 mg
Experimental: as §1
The in vivo inflammation test was carried out using duplicates separated by a number of months. In each test each group of animals (n=8) was fed a standard diet supplemented with 2.3 mg/day/kg (animal weight) of each of the compounds, depending upon the group. […]
• Monitoring of weight, food and drink ingestion. The mice in all groups were individually monitored, with weight, quantity of food ingested and water drunk each day being monitored throughout the experimental test. • Blood and water in feces. The water content of feces, as an indication of diarrhea, was evaluated using the difference in weight following evaporation in a stove. Blood was measured using reactive strips based on the guaiacol-peroxidase reaction (HealthCare Diagnosis Inc.). […] The reaction was measured using a scale from 0 (negative result) to 4 (most intense color change). • Length of colon. After sacrifice the colon was obtained from each mouse, extended and measured. […]

Compound	Blood haptoglobin levels (haptoglobin)	Anti-adhesion efficacy in respect of Salmonella (Salmonella)	Myeloperoxidase activity in colonic mucosa (Myeloperoxidase (MPO))
CCCC(=O)OCC1OC(Oc2cc(O)cc(/C=C/c3ccc(O)cc3)c2)C(O)C(O)C1O [BUT, trans-resveratrol-3-O-(6′-O-butanoyl)-β-D-glucopyranoside]	most notable differences	greater anti-adhesion efficacy	most obvious fall
CCCCCCCC(=O)OCC1OC(Oc2cc(O)cc(/C=C/c3ccc(O)cc3)c2)C(O)C(O)C1O [OCT, trans-resveratrol-3-O-(6′-O-octanoyl)-β-D-glucopyranoside]	most notable differences	greater anti-adhesion efficacy	most obvious fall
